Measurements reported in patent US9682013B2, “Pharmaceutical compositions comprising human antibodies to PCSK9” (SANOFI BIOTECHNOLOGY, priority 2011, dated 2017).

Tested on: patients with an elevated low-density lipoprotein cholesterol (LDL-C) (≧100 mg/dL or 2.59 mmol/L)
Assay: Study 1: randomized, double-blind, placebo-controlled 12-week study of antibody 316P on stable atorvastatin
Format: in vivo, human
Details: for Cholesterol, Week 12 % change from baseline, Mean / Cholesterol, Week 12 % change from baseline, Median / Cholesterol, Week 12, Mean / Cholesterol, Week 12, Median / Cholesterol, Week 12 change from baseline, Mean / Cholesterol, Week 12 change from baseline, Median / LDL Cholesterol, Week 12—% change from baseline, Mean / LDL Cholesterol, Week 12—% change from baseline, Median / Non-HDL Cholesterol, Week 12 % change from baseline, Mean / Non-HDL Cholesterol, Week 12 % change from baseline, Median / LS mean difference vs. placebo in percent change from baseline in LDL-C at 12 weeks: on stable atorvastatin
Procedure: This was a multicenter, randomized, double-blind, parallel-group, placebo-controlled, 12-week study to assess the efficacy and safety of antibody 316P in patients with an elevated low-density lipoprotein cholesterol (LDL-C) (≧100 mg/dL or 2.59 mmol/L), when treated with atorvastatin (10 mg, 20 mg, or 40 mg) at a stable dose for at least 6 weeks. The randomization was stratified by the dose of atorvastatin received prior to randomization. After the double-blind period patients were followed during an 8-week follow-up period. The primary objective of the study was to evaluate the effect of antibody 316P on LDL-C levels after 12 weeks of treatment in comparison with placebo in patients with LDL-C (≧100 mg/dL or 2.59 mmol/L) on ongoing stable atorvastatin therapy.
The following doses/dose regimens were evaluated: 50 mg, 100 mg and 150 mg every 2 weeks (E2W), 200 mg and 300 mg every 4 weeks (E4W) in comparison with placebo.
Present study comprised a total of 122 patients (20 in placebo, 19 in 50 mg E2W group, 20 in 100 mg E2W group, 20 in 150 mg E2W group, 22 in 200 mg E4W group, and 21 in 300 mg E4W group).
Inclusion criteria: • Patients (patients receiving a lipid lowering treatment other than atorvastatin/or not at stable dose of atorvastatin 10 mg, 20 mg or 40 mg for at least 6 weeks prior to screening period or drug naïve patients) with primary hypercholesterolemia likely to have low-density lipoprotein cholesterol (LDL-C)≧100 mg/dL (≧2.59 mmol/L) at the end of the run-in period on atorvastatin therapy (Week-1). • OR • Patients with primary hypercholesterolemia treated with atorvastatin at stable dose of 10 mg, 20 mg, or 40 mg for at least 6 weeks prior to screening period and likely to have LDL-C≧100 mg/dL (≧2.59 mmol/L) at the screening visit Week-1. […]

[1] = 12 weeks, all doses/dose regimens

316P: fully human anti-PCSK9 antibody comprising a HCVR as shown in SEQ ID NO: 90 and LCVR as shown in SEQ ID NO: 92 [Antibody 316P]
Cholesterol, Week 12 % change from baseline, Mean (50 mg E2W): −24.21%
Cholesterol, Week 12 % change from baseline, Median (50 mg E2W): −23.34%
Cholesterol, Week 12, Mean (50 mg E2W): 3.974 mmol/L
Cholesterol, Week 12, Median (50 mg E2W): 3.937 mmol/L
Cholesterol, Week 12 change from baseline, Mean (50 mg E2W): -1.313 mmol/L
Cholesterol, Week 12 change from baseline, Median (50 mg E2W): -1.399 mmol/L
LDL Cholesterol, Week 12—% change from baseline, Mean (50 mg E2W): −41.06%
LDL Cholesterol, Week 12—% change from baseline, Median (50 mg E2W): −37.04%
Non-HDL Cholesterol, Week 12 % change from baseline, Mean (50 mg E2W): −35.23%
Non-HDL Cholesterol, Week 12 % change from baseline, Median (50 mg E2W): −36.62%
maintenance of LDL-C decrease observed after the first injection (100 mg E2W and 150 mg E2W groups, also throughout the interval period between the injections): maintained throughout the study
Cholesterol, Week 12 % change from baseline, Mean (100 mg E2W): −38.97%
Cholesterol, Week 12 % change from baseline, Median (100 mg E2W): −40.21%
Cholesterol, Week 12, Mean (100 mg E2W): 3.288 mmol/L
Cholesterol, Week 12, Median (100 mg E2W): 3.238 mmol/L
Cholesterol, Week 12 change from baseline, Mean (100 mg E2W): -2.098 mmol/L
Cholesterol, Week 12 change from baseline, Median (100 mg E2W): -2.163 mmol/L
LDL Cholesterol, Week 12—% change from baseline, Mean (100 mg E2W): −63.90%
LDL Cholesterol, Week 12—% change from baseline, Median (100 mg E2W): −64.28%
LS mean difference vs. placebo in percent change from baseline in LDL-C at 12 weeks (100 mg E2W): −58.36%
Non-HDL Cholesterol, Week 12 % change from baseline, Mean (100 mg E2W): −54.78%
Non-HDL Cholesterol, Week 12 % change from baseline, Median (100 mg E2W): −55.91%
number of patients with LDL-C reduction from baseline >50% at week 12 (150 mg E2W group, among 18 patients): 17
Cholesterol, Week 12 % change from baseline, Mean (150 mg E2W): −45.21%
Cholesterol, Week 12 % change from baseline, Median (150 mg E2W): −45.03%
Cholesterol, Week 12, Mean (150 mg E2W): 2.922 mmol/L
Cholesterol, Week 12, Median (150 mg E2W): 2.823 mmol/L
Cholesterol, Week 12 change from baseline, Mean (150 mg E2W): -2.466 mmol/L
Cholesterol, Week 12 change from baseline, Median (150 mg E2W): -2.331 mmol/L
LDL Cholesterol, Week 12—% change from baseline, Mean (150 mg E2W): −72.68%
LDL Cholesterol, Week 12—% change from baseline, Median (150 mg E2W): −74.83%
LS mean difference vs. placebo in percent change from baseline in LDL-C at 12 weeks (150 mg E2W): −68.78%
Non-HDL Cholesterol, Week 12 % change from baseline, Mean (150 mg E2W): −63.71%
Non-HDL Cholesterol, Week 12 % change from baseline, Median (150 mg E2W): −65.94%
Cholesterol, Week 12 % change from baseline, Mean (200 mg E4W): −29.54%
Cholesterol, Week 12 % change from baseline, Median (200 mg E4W): −29.51%
Cholesterol, Week 12, Mean (200 mg E4W): 3.709 mmol/L
Cholesterol, Week 12, Median (200 mg E4W): 3.587 mmol/L
Cholesterol, Week 12 change from baseline, Mean (200 mg E4W): -1.596 mmol/L
Cholesterol, Week 12 change from baseline, Median (200 mg E4W): -1.716 mmol/L
LDL Cholesterol, Week 12—% change from baseline, Mean (200 mg E4W): −47.23%
LDL Cholesterol, Week 12—% change from baseline, Median (200 mg E4W): −49.46%
LS mean difference vs. placebo in percent change from baseline in LDL-C at 12 weeks (200 mg E4W): −42.53%
Non-HDL Cholesterol, Week 12 % change from baseline, Mean (200 mg E4W): −40.07%
Non-HDL Cholesterol, Week 12 % change from baseline, Median (200 mg E4W): −39.91%
decrease in LDL-C during the interval periods (200 mg and 300 mg E4W groups): at least −40%
Cholesterol, Week 12 % change from baseline, Mean (300 mg E4W): −29.61%
Cholesterol, Week 12 % change from baseline, Median (300 mg E4W): −33.48%
Cholesterol, Week 12, Mean (300 mg E4W): 3.778 mmol/L
Cholesterol, Week 12, Median (300 mg E4W): 3.393 mmol/L
Cholesterol, Week 12 change from baseline, Mean (300 mg E4W): -1.638 mmol/L
Cholesterol, Week 12 change from baseline, Median (300 mg E4W): -2.020 mmol/L
LDL Cholesterol, Week 12—% change from baseline, Median (300 mg E4W): −51.98%
LS mean difference vs. placebo in percent change from baseline in LDL-C at 12 weeks (300 mg E4W): −42.26%
Non-HDL Cholesterol, Week 12 % change from baseline, Mean (300 mg E4W): −41.17%
Non-HDL Cholesterol, Week 12 % change from baseline, Median (300 mg E4W): −45.55%
tolerability (12 weeks of treatment, all tested doses/dose regimens): well tolerated
ApoB [1]: decrease
Total-C [1]: decrease
non HDL-C [1]: decrease
HDL-C (12 weeks, all groups): trend of increase
percent change from baseline in LDL-C at 12 weeks compared to the placebo group (all groups): Statistically significant decreases
troponin levels (all treatment groups): no change
LDL-C mean values over 12 weeks and LOCF (FIG. 6, words) (all treatment groups except placebo, whole study period): significant and persistent reduction of LDL-C levels
